In patent publication US12065445B2, “CDK2 inhibitors and methods of using the same” (Cedilla Therapeutics, Inc., priority 2021, dated 2024):

Tested on: Kuramochi cells labeled with mApple-H2B
Assay: IncuCyte Cell Proliferation Assay
Type: cell-based
Description: IncuCyte® assay was used to measure the effect of disclosed compounds on cell proliferation. Fluorescent microscopy images of cells were taken immediately after compound treatment and 72 hours later. Image analysis software was used to obtain cell counts as a function of compound concentration. Kuramochi cells labeled with mApple-H2B were seeded on 384-well assay-ready plates. Plates were placed in an IncuCyte® (Sartorius) and scanned at 0 and 72 hours. IncuCyte® software was used to count the number of fluorescent nuclei in each well. The fold change in cell count from 0 to 72 hours in wells treated with increasing compounds concentrations (10 pts, ½ log dilution, 20 μM top concentration) was normalized to DMSO control wells. The normalized cell counts were fit with dose response curves and a […] was calculated.

SMILES | IC50 (72 h) | IC50 (72 hours)
C[C@@H](OCC12CCC(CC1)OC2)[C@H](NC(=O)[C@@H]1CN(C(=O)c2cncs2)CC12CN(C(=O)[C@H]1CC1(C)C)C2)C(=O)N1CCC(C)(C)CC1 [I-452] | ≤ 0.5 µM | 
CC(C)(O)C(NC(=O)[C@@H]1CN(C(=O)c2cncs2)CC12CN(C(=O)C(C)(C)C1CC1)C2)c1cccc(C2CCOCC2)n1 (some centres unmarked) [I-339] | > 20 µM | 
CNC(=O)[C@@H](NC(=O)[C@@H]1CN(C(=O)c2cnn(Cc3ccccc3)c2)CC12CN(C(=O)[C@H]1CC1(C)C)C2)C1(OCC2CCCCC2)CC1 [I-396] | 0.5 to 5 µM | 
Cc1nc(C)c(C(=O)N2C[C@@H](C(=O)N[C@H](C(=O)N3CCC(OC(F)(F)F)CC3)[C@@H](C)OCC34CCC(CC3)OC4)C3(C2)CN(C(=O)[C@H]2CC2(C)C)C3)s1 [I-455] | 0.5 to 5 µM | 
C[C@@H](OCC1(C(F)(F)F)CC1)[C@H](NC(=O)[C@H]1CN(C(=O)c2cncs2)CC12CN(C(=O)[C@H]1CC1(C)C)C2)C(=O)N1CCC(F)(F)CC1 [I-291] | > 20 µM | 
C[C@@H](OCC12CCC(CC1)OC2)[C@H](NC(=O)[C@@H]1CN(C(=O)c2cncs2)CC12CN(C(=O)C(C)(C)C1CC1)C2)C(C)(C)O [I-334] | > 20 µM | 
CNC(=O)[C@@H](NC(=O)[C@@H]1CN(C(=O)c2cncs2)CC12CN(Cc1ccco1)C2)[C@@H](C)OCC12CCC(CC1)OC2 [I-349] | > 20 µM | 
C[C@@H](OCC1CCC(F)(F)CC1)[C@H](NC(=O)[C@@H]1CN(C(=O)c2cncs2)CC12CN(C(=O)[C@H]1CC1(C)C)C2)C(C)(C)O [I-313] | 0.5 to 5 µM | 
C[C@@H](OCC1(C(F)(F)F)CC1)[C@H](NC(=O)[C@@H]1CN(C(=O)c2cncs2)CC12CN(C(=O)[C@H]1CC1(C)C)C2)C(=O)N1CCCCC1 [I-285] | > 20 µM | 
CNC(=O)[C@@H](NC(=O)[C@@H]1CN(C(=O)c2cnn(Cc3ccc(C(=O)O)cc3)c2)CC12CN(C(=O)[C@H]1CC1(C)C)C2)[C@@H](C)OCc1ccccc1 [I-476] | > 20 µM | 
C[C@@H](OCC12CCC(CC1)OC2)[C@H](NC(=O)[C@@H]1CN(C(=O)c2cncs2)CC12CN(C(=O)[C@H]1CC1(C)C)C2)C(=O)N1CCC[C@H](COC(F)F)C1 [I-461] | 0.5 to 5 µM | 
C[C@@H](OCC1CCOCC1)[C@H](NC(=O)[C@@H]1CN(C(=O)c2cncs2)CC12CN(C(=O)[C@H]1CC1(C)C)C2)C(=O)N1CCC[C@H](COC(F)(F)F)C1 [I-327] | 5 to 20 µM | 
C[C@@H](OCC1CC(F)(F)C1)[C@@H](CO)NC(=O)[C@@H]1CN(C(=O)c2cncs2)CC12CN(C(=O)[C@H]1CC1(C)C)C2 [I-412] | > 20 µM | 
C[C@@H](OCC1CCCCC1)[C@H](NC(=O)[C@@H]1CN(C(=O)c2cnn(Cc3ccccc3)c2)CC12CN(C(=O)[C@H]1CC1(C)C)C2)C(=O)NCCC(=O)OC(C)(C)C [I-478] | ≤ 0.5 µM | 
CNC(=O)C(NC(=O)[C@@H]1CN(C(=O)c2cncs2)CC12CN(C(=O)C(C)(C)C1CC1)C2)c1cccc(C2CCCCC2)n1 (stereo partly drawn) [I-410, (8S)—N-(1-(6-cyclohexylpyridin-2-yl)-2-(methylamino)-2-oxoethyl)-2-(2-cyclopropyl-2-methylpropanoyl)-6-(thiazole-5-carbonyl)-2,6-diazaspiro[3.4]octane-8-carboxamide] | 0.5 to 5 µM | 
C[C@@H](OCC1CCCCC1)[C@H](NC(=O)[C@@H]1CN(C(=O)c2cnn(Cc3ccccc3)c2)CC12CN(C(=O)[C@H]1CC1(C)C)C2)C(=O)N1CCC(c2ncc[nH]2)CC1 [I-446] | 0.5 to 5 µM | 
CC1(C)C[C@@H]1C(=O)N1CC2(CN(C(=O)c3cncs3)C[C@H]2C(=O)NCc2cccc(C3CCCCC3)n2)C1 [I-414] | 0.5 to 5 µM | 
CNC(=O)[C@@H](NC(=O)[C@@H]1CN(C(=O)c2cncs2)CC12CN(CC(C)(C)C)C2)[C@@H](C)OCC12CCC(CC1)OC2 [I-347] | > 20 µM | 
COC[C@H]1CCCN(C(=O)[C@@H](NC(=O)[C@@H]2CN(C(=O)c3cncs3)CC23CN(C(=O)[C@H]2CC2(C)C)C3)[C@@H](C)OC[C@H]2CC[C@H](N)CC2)C1 [I-433] | > 20 µM | 
CNC(=O)C(NC(=O)[C@@H]1CN(C(=O)c2cnn(Cc3ccccc3)c2)CC12CN(C(=O)[C@H]1CC1(C)C)C2)c1ccc(C)nn1 (some centres unmarked) [I-421] | > 20 µM | 
C[C@@H](OCC12CCC(CC1)OC2)[C@H](NC(=O)[C@@H]1CN(C(=O)c2cnco2)CC12CN(C(=O)[C@H]1CC1(C)C)C2)C(C)(C)O [I-450] | > 20 µM | 
COC[C@H]1CCCN(C(=O)[C@@H](NC(=O)[C@@H]2CN(C(=O)c3cncs3)CC23CN(C(=O)C(C)(C)C2CC2)C3)[C@@H](C)OCC2CCCCC2)C1 [I-389] | 0.5 to 5 µM | 
COC[C@H]1CCCN(C(=O)[C@@H](NC(=O)[C@@H]2CN(C(=O)c3cncs3)CC23CN(C(=O)C(C)(C)C2CC2)C3)[C@@H](C)OC[C@H]2CC[C@H](O)CC2)C1 [I-431] | > 20 µM | 
CNC(=O)[C@@H](NC(=O)[C@@]1(C)CN(C(=O)c2cnn(Cc3ccccc3)c2)CC12CN(C(=O)[C@H]1CC1(C)C)C2)[C@@H](C)OCC1CCCCC1 [I-499B] | > 20 µM | 

SMILES | IC50 (72 h) | IC50 (72 hours)
C[C@@H](OCC1CCCCC1)[C@H](NC(=O)[C@@H]1CN(C(=O)c2cnn(Cc3ccccc3)c2)CC12CN(C(=O)[C@H]1CC1(C)C)C2)C(=O)N1CCC(n2cccn2)CC1 [I-439] | ≤ 0.5 µM | 
CC1(C)C[C@@H]1C(=O)N1CC2(CN(C(=O)c3cncs3)C[C@H]2C(=O)NC(c2cccc(C3CCCCC3)n2)C2CCOC2)C1 (some centres unmarked) [I-493] | 5 to 20 µM | 
C[C@@H](OCC1CCC(F)(F)CC1)[C@H](NC(=O)C1CN(C(=O)c2cncs2)CC12CN(C(=O)[C@H]1CC1(C)C)C2)C(=O)N1CCC(OC(F)(F)F)CC1 (some centres unmarked) [I-394] | ≤ 0.5 µM | 
C[C@@H](OCc1ccccc1)[C@H](NC(=O)[C@@H]1CN(C(=O)c2cncs2)CC12CN(C(=O)[C@H]1CC1(C)C)C2)C(=O)N(C)C [I-416] | 5 to 20 µM | 
CC1(C)C[C@@H]1C(=O)N1CC2(CN(C(=O)c3cnn(Cc4ccccc4)c3)C[C@H]2C(=O)NCc2ccc(C(F)(F)F)nn2)C1 [I-392] | > 20 µM | 
C[C@@H](OCC1CCC(F)(F)CC1)[C@H](NC(=O)[C@@H]1CN(C(=O)c2cncs2)CC12CN(C(=O)C(C)(C)C1CC1)C2)C(=O)N1CCC(O)CC1 [I-337] | 0.5 to 5 µM | 
COC[C@H]1CCCN(C(=O)[C@@H](NC(=O)[C@@H]2CN(C(=O)c3cncs3)CC23CN(C(=O)[C@H]2CC2(C)C)C3)[C@@H](C)O[C@@H](C)C2CCCCC2)C1 [I-467] |  | 0.5 to 5 µM
C[C@@H](OCC1CCOCC1)[C@@H](COC1CCC(F)(F)CC1)NC(=O)[C@@H]1CN(C(=O)c2cncs2)CC12CN(C(=O)C(C)(C)C1CC1)C2 [I-333, (S)-2-(2-cyclopropyl-2-methylpropanoyl)-N-((2R,3R)-1-((4,4-difluorocyclohexyl)oxy)-3-((tetrahydro-2H-pyran-4-yl)methoxy)butan-2-yl)-6-(thiazole-5-carbonyl)-2,6-diazaspiro[3.4]octane-8-carboxamide] | 5 to 20 µM | 
Cc1ccc(CNC(=O)[C@@H]2CN(C(=O)c3cnn(Cc4ccncc4)c3)CC23CN(C(=O)[C@H]2CC2(C)C)C3)nn1 [I-418] | > 20 µM | 
[2H]C([2H])([2H])OC[C@H]1CCCN(C(=O)[C@@H](NC(=O)[C@@H]2CN(C(=O)c3cncs3)CC23CN(C(=O)C(C)(C)C2CC2)C3)[C@@H](C)OCC23CCC(CC2)OC3)C1 [I-459] | 5 to 20 µM | 
C[C@@H](OCC1CCC2(CCC2)CC1)[C@H](NC(=O)[C@@H]1CN(C(=O)c2cnn(Cc3ccccc3)c2)CC12CN(C(=O)[C@H]1CC1(C)C)C2)C(=O)N1CCC(c2cnc[nH]2)CC1 [I-444] | ≤ 0.5 µM | 
C[C@@H](OCC12CCC(CC1)OC2)[C@H](NC(=O)[C@@H]1CN(C(=O)c2cncs2)CC12CN(C(=O)[C@H]1CC1(C)C)C2)C(=O)N1CCC2(CC1)CC2 [I-458] | 0.5 to 5 µM | 
CC(C)(O)C(NC(=O)[C@@H]1CN(C(=O)c2cncs2)CC12CN(C(=O)[C@H]1CC1(C)C)C2)c1cccc(C2CCOCC2)n1 (some centres unmarked) [I-423] | > 20 µM | 
CNC(=O)[C@@H](NC(=O)C1(C)CN(C(=O)c2cnn(Cc3ccccc3)c2)CC12CN(C(=O)[C@H]1CC1(C)C)C2)[C@@H](C)OCc1ccccc1 (stereo partly drawn) [I-498, 6-(1-benzyl-1H-pyrazole-4-carbonyl)-N-((2S,3R)-3-(benzyloxy)-1-(methylamino)-1-oxobutan-2-yl)-2-((S)-2,2-dimethylcyclopropane-1-carbonyl)-8-methyl-2,6-diazaspiro[3.4]octane-8-carboxamide] | > 20 µM | 
CNC(=O)[C@@H](NC(=O)[C@@H]1CN(C(=O)c2cncs2)CC12CN(CC1CCCO1)C2)[C@@H](C)OCC1CCCCC1 (some centres unmarked) [I-352] | > 20 µM | 
C[C@@H](OCC1CCC(F)(F)CC1)[C@H](NC(=O)[C@@H]1CN(C(=O)c2cncs2)CC12CN(C(=O)[C@H]1CC1(C)C)C2)C(=O)N1CCC2(CC1)COC2 [I-335] | 0.5 to 5 µM | 
CN(C)C(=O)C(NC(=O)[C@@H]1CN(C(=O)c2cncs2)CC12CN(C(=O)C(C)(C)C1CC1)C2)c1cccc(C2CCOCC2)n1 (some centres unmarked) [I-340] | > 20 µM | 
C[C@@H](OCC12CCC(CC1)OC2)[C@H](NC(=O)[C@@H]1CN(C(=O)c2cncs2)CC12CN(C(=O)[C@H]1CC1(C)C)C2)C(=O)N1CCC(OC(F)(F)F)CC1 [I-457] | 0.5 to 5 µM | 
C[C@@H](OCC1CCCCC1)[C@@H](COC1CCOCC1)NC(=O)[C@@H]1CN(C(=O)c2cncs2)CC12CN(C(=O)[C@H]1CC1(C)C)C2 [I-331] | ≤ 0.5 µM | 
Cc1nc(C)c(C(=O)N2C[C@@H](C(=O)N[C@H](C(=O)N3CCC4(CC3)COC4)[C@@H](C)OCC34CCC(CC3)OC4)C3(C2)CN(C(=O)[C@H]2CC2(C)C)C3)s1 [I-343] | > 20 µM | 
Cc1nc(C)c(C(=O)N2C[C@@H](C(=O)NC(c3cccc(C4CCOCC4)n3)C(C)(C)O)C3(C2)CN(C(=O)[C@H]2CC2(C)C)C3)s1 (some centres unmarked) [I-437] | > 20 µM | 
C[C@@H](OCC12CCC(CC1)OC2)[C@H](NC(=O)[C@@H]1CN(C(=O)c2cncs2)CC12CN(C(=O)[C@H]1CC1(C)C)C2)C(=O)N1CCCC2(COC2)C1 [I-453] | 5 to 20 µM | 
CC1(C)C[C@@H]1C(=O)N1CC2(CN(C(=O)c3cncs3)C[C@H]2C(=O)NC(CO)c2cccc(C3CCC(F)(F)CC3)n2)C1 (some centres unmarked) [I-419] | > 20 µM | 
